In patent US20190128870A1, “Diagnostic Methods For Patient Specific Therapeutic Decision Making In Cancer Care” (Humeltis, priority 2016, published 2019):

Assays:
[1] = system: Glioblastoma multiforme 3D aggregates (Glioblastoma 1); experiment: Annexin V-PI flow cytometry of drug-treated Glioblastoma 1 3D aggregates; type: cell-based, human
Method: Two, freshly resected, native samples reached the laboratory directly from the pathologist within 2 hours of surgery. The two samples were treated separately and were labelled as “Glioblastoma 1” and “Glioblastoma 2”. […] The samples were processed according to protocol and drug sensitivity tests were performed using the viable, Sample 1. Samples for DNA and RNA isolation were also stored at −80° C., leaving the opportunity open for additional sequencing or comparative gene expression studies. Traditional out-growth cultures were also prepared from Glioblastoma sample 1 showing the strong viability and proliferative ability of the cells (FIG. 1.). Annexin: Annexin V is used as a non-quantitative probe to detect cells that express phosphatidylserine (PS) on their cell surface, an event found in apoptosis as well as other forms of cell death. The assay combines annexin V staining of PS and PE membrane events with the staining of DNA in the cell nucleus with propidium iodide (PI) or 7-Aminoactinomycin D (AAD-7), distinguishing viable cells from apoptotic cells and necrotic cells. Detection was performed by flow cytometry or a fluorescence microscope. […] Erbitux (Cetuximab): 4.8 mg/ml; […] Erlotinib similarly to Cetuximab is an EGFR inhibitor (the two drugs are frequently used clinically together).

[2] = system: Glioblastoma multiforme 3D aggregates; experiment: CellTiter-Glo 3D Cell Viability Assay, glioblastoma drug sensitivity test; type: cell-based, human; details: BCNU 0.3, 0.03, 0.003 mg/ml, FIGS. 3 & 4
Method: Toxicology assay: CellTiter-Glo® 3D Cell Viability Assay (Promega). The CellTiter-Glo® 3D Cell Viability Assay is a homogeneous, luminescent method to determine the number of viable cells in 3D cell culture based on quantitation of the ATP present, which is a marker for the presence of metabolically active cells.
Aggregates were prepared in 96-well plates and cultures were incubated with the following agents: cisplatin, erlotinib, vinorelbine, and pemetrexed. […] Following 24, 48 h or 72 h incubation, cells were labelled using Annexin V-PI and analyzed by flow cytometry or analysed by Promega CellTiter-Glo® 3D Cell Viability Assay Kit (Luminescent) (ATP detection kit)(FIGS. 3 & 4).

glioblastoma tumour = experiment: Treatment of the glioblastoma patient; type: in vivo, human
Method: The patient was treated with BCNU and the tumour was regressing within 2 weeks after the first administration of the drug.

Structure (SMILES): N.N.[Cl][Pt][Cl] [Cisplatin]
- Annexin Pl++ Late apoptosis ([1]; 9 μg/m1): 0.19%
- Pl+ ratio within Annexin+ Non-viable ([1]; 9 μg/m1): 0.44%

Structure (SMILES): Nc1nc2[nH]cc(CCc3ccc(C(=O)N[C@@H](CCC(=O)O)C(=O)O)cc3)c2c(=O)[nH]1 [Pemetrexed]
- Annexin Pl++ Late apoptosis ([1]; 1 μM): 0.19%
- Pl+ ratio within Annexin+ Non-viable ([1]; 1 μM): 0.37%

Structure (SMILES): CCC1=C[C@@H]2CN(C1)Cc1c([nH]c3ccccc13)[C@@](C(=O)OC)(c1cc3c(cc1OC)N(C)[C@H]1[C@@](O)(C(=O)OC)[C@H](OC(C)=O)[C@]4(CC)C=CCN5CC[C@]31[C@@H]54)C2 [Vinorelbine]
- Annexin Pl++ Late apoptosis ([1]; 20 nM): 0.49%
- Pl+ ratio within Annexin+ Non-viable ([1]; 20 nM): 0.93%
- Annexin Pl++ Late apoptosis ([1]; 50 nM): 0.05%
- Pl+ ratio within Annexin+ Non-viable ([1]; 50 nM): 0.09%

Structure (SMILES): C#Cc1cccc(Nc2ncnc3cc(OCCOC)c(OCCOC)cc23)c1 [Erlotinib]
- Annexin Pl++ Late apoptosis ([1]; 1 μM): 0.32%
- Pl+ ratio within Annexin+ Non-viable ([1]; 1 μM): 0.62%

Structure (SMILES): O=NN(CCCl)C(=O)NCCCl [BCNU, Carmustine]
- sensitivity of the glioblastoma cells [2]: clearly confirmed sensitivity
- time to tumour regressing after the first administration of the drug (glioblastoma tumour): ≤ 2 weeks
